Reference: article PMC2918522, “Characterization of the first beta-class carbonic anhydrase from an arthropod (Drosophila melanogaster) and phylogenetic analysis of beta-class carbonic anhydrases in invertebrates” (BMC Biochemistry, 2010)

T1: DmBCA (Drosophila melanogaster, UniProt Q9VHJ5)
T1 construct: gene CAHbeta; C-terminal thrombin site and His6; baculovirus/Sf9, purified from culture supernatant; thrombin treatment to remove tag; 28/27 kDa before/after thrombin; dimer
T1 sequence (Q9VHJ5 1-255): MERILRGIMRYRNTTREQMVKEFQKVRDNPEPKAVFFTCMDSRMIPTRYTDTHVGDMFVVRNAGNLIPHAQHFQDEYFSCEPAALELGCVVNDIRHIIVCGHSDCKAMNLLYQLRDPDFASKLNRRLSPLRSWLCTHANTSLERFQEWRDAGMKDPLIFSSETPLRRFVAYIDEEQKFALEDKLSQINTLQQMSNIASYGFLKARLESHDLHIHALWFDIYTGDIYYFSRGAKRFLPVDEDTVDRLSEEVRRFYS

B1: Drosophila melanogaster β-carbonic anhydrase (DmBCA) (enzyme, UniProt Q9VHJ5 1-255, looked up)
chain: T1 sequence (Q9VHJ5 1-255)
notes: cDNA from S2 cells; A thrombin cleavage site stands between DmBCA and the C-terminal His6 (primer R4 encodes LVPRGS-HHHHHH after the last residue); also called D. melanogaster β-CA; Drosophila β-CA; source: Sf9 insect cells (baculovirus), purified from the culture supernatant (Probond nickel-chelating resin)

Target: T1, DmBCA
Assay: stopped-flow CO2 hydration assay
Format: biochemical

Point of comparison: `NS(=O)(=O)O` [H2NSO3H], Ki 2450 µM. Against it:
- Br [Br^-] — 2.4-fold lower, 1040 µM
- N#CO [CNO^-] — 3.4-fold lower, 730 µM
- Cl [Cl^-] — 2.5-fold lower, 970 µM
- F [F^-] — 3.1-fold lower, 800 µM
- NS(N)(=O)=O [H2NSO2NH2] — 16-fold lower, 150 µM
- O=C(O)O [HCO3^-] — 11-fold higher, 26900 µM
- O=S(O)O [HSO3^-] — 1.9-fold lower, 1290 µM
- S [HS^-] — 2.4-fold lower, 1010 µM
- I [I^-] — 2.1-fold lower, 1180 µM
- O=NO [NO2^-] — 12-fold higher, 28600 µM
- O=[N+]([O-])O [NO3^-] — 18-fold higher, 43700 µM
- OB(O)c1ccccc1 [Ph-B(OH)2] — 9.1-fold higher, 22400 µM
- N#CS [SCN^-] — 1.9-fold lower, 1280 µM
- O=S(=O)(O)O [SO4^2-] — 1.8-fold lower, 1360 µM

Target: the molecule itself
Assay: dynamic light scattering + SEC; DLS (Zetasizer ZS): proteins exchanged to 50 mM Na2HPO4 pH 7.0, 100 mM NaCl, temperature scan 4-50°C, mass estimated from the hydrodynamic diameter with a globular protein standard curve; analytical gel filtration: Superdex200 10/300GL, 50 mM Na2HPO4, 650 mM NaCl pH 7.0, 20-30 μg protein per run

With B1 the “stoichiometry N” value was 2.
